{"source": "patent US11298361B2", "about": "“Fused benzazepines for treatment of Tourette's Syndrome” (EMALEX BIOSCIENCES, INC., priority 2012, dated 2022)", "key": {"[1]": {"system": "CAR", "conditions": "cited from earlier work"}, "[2]": {"target": "D1/D5 receptor (^3H-23390)", "conditions": "radioligand ^3H-23390; cited from earlier work"}, "[3]": {"target": "D2 receptor (^3H-Spip) (Homo sapiens, UniProt P14416)", "sequence (P14416 whole entry)": "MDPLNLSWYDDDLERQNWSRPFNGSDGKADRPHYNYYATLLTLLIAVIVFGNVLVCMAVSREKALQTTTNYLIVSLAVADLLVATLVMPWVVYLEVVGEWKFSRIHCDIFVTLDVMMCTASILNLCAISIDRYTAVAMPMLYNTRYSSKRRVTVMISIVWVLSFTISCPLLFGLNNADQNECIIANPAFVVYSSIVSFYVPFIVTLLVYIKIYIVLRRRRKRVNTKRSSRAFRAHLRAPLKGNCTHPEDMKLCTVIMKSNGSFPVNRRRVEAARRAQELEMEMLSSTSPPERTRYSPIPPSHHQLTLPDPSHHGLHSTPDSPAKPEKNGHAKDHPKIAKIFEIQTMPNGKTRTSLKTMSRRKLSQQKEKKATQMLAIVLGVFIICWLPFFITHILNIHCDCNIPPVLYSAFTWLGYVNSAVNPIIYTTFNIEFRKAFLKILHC"}, "[4]": {"system": "adenosine, benzodiazepine, glutamate/AMPA/kainate, GABA, muscarinic, nicotinic, opiate, alpha- or beta-adrenergic sites", "assay": "Binding at other receptor sites"}, "[5]": {"system": "D1 receptors", "assay": "In vitro studies on cAMP second messenger (adenylate cyclase)", "type": "biochemical", "protocol": "(§1) Activation of D1 receptors by dopamine and similar agonists stimulates the production of cyclic AMP (cAMP) via activation of adenylate cyclase. […] To ensure that there was no species specificity to the receptor binding profile, ecopipam's potency and selectivity were evaluated using cloned human receptors. […] Positron emission tomography (PET) studies using radiolabeled ecopipam have been conducted in healthy volunteers (Karlsson et al., Psychopharmacol. 121:300-308, 1995)."}, "[6]": {"system": "hD1/hD5 receptors", "assay": "Binding to cloned human receptors", "protocol": "as §1"}, "[7]": {"system": "adult patients with Tourette's Syndrome", "assay": "Open-label clinical study in adult patients with Tourette's Syndrome", "type": "in vivo, human", "protocol": "A clinical program was carried out to test the safety, tolerability, and activity of ecopipam in adult patients with Tourette's Syndrome. A multicenter, open-label, nonrandomized study in 25 to 30 subjects was conducted to assess the activity and safety of ecopipam in subjects with TS. […] Assessment was performed at each visit. A follow-up visit was conducted via telephone at Week 10 to record any adverse events. Ecopipam was administered daily before bedtime at 50 mg/day for Week 1 and Week 2 and at 100 mg/day for Weeks 3-8. This treatment regimen is within the scope of the present invention; the compositions and various formulations described herein can be administered as described in this Example. The activity of ecopipam was measured using the following clinical rating scales: (1) Yale Global Tic Severity Scale (YGTSS; data based on this scoring system are presented below); (2) ADHD self-report symptom checklist (ASRS); (3)Yale-Brown Obsessive Compulsive Scale (YBOCS); (4) Premonitory Urge for […]; and (6) Clinical Global Impression Improvement and Severity Scales (CGI). The demographics of the study population were as follows: eighty three percent of the subjects were male (15 out of 18); fifteen were Caucasian, two were African-American, and one was an Asian/Pacific Islander. […] Four patients reported AEs that were rated as severe and included the following: sedation, insomnia, decreased appetite, hypersensitivity, cold sweat, and feeling jittery. The following AEs were rated mild to moderate and were reported in more than three subjects: fatigue, insomnia, nausea, sedation, headache, restlessness, anxiety, muscle twitching, dysphoria, and sleeplessness. These side effects are similar to those seen in other studies with ecopipam and were not unexpected."}, "[8]": {"system": "D1/D5 receptors", "conditions": "rat brain homogenates, low concentrations; cited from earlier work"}, "[9]": {"system": "D1 receptor", "conditions": "rats, D1-agonist discriminative stimulus; cited from earlier work"}, "[10]": {"target": "dopamine D1 receptors in human brain (Homo sapiens, UniProt P21728)", "sequence (P21728 whole entry)": "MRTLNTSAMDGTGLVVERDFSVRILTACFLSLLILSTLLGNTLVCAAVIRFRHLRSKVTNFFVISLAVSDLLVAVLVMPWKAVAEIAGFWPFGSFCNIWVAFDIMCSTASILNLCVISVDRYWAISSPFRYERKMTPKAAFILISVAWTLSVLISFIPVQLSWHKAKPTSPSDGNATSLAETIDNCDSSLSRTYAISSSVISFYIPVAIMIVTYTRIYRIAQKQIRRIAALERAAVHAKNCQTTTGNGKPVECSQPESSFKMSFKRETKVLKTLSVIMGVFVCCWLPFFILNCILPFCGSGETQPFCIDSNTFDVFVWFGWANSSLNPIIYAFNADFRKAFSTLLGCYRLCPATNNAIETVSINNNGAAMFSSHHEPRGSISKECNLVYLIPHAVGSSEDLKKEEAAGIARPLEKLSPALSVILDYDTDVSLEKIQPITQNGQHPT", "conditions": "radiolabeled ecopipam, healthy volunteers; cited from earlier work"}, "[11]": {"conditions": "radioligand ^3H-Spip; read-out: Ki (nM) ^3H-Spip; cited from earlier work"}}, "note": "Read-outs that look alike come from different tables or passages of the source."}
{"smiles": "CN1CCc2cc(Cl)c(O)cc2C2c3ccccc3CCC21", "note": "(stereo not drawn) [Q=CH2, n=1, trans, X=Cl, Y=OH]", "values": [{"measurement": "CAR (MED), po", "setting": "[1]", "result": 30, "unit": "mg/kg"}, {"measurement": "CAR (MED), sc", "setting": "[1]; in mg/kg (unit assumed)", "result": 0.3}]}
{"smiles": "COc1cc2c(cc1O)C1c3ccccc3CCC1N(C)CC2", "note": "(stereo not drawn) [Q=CH2, n=1, cis, X=CH3O, Y=OH]", "values": [{"measurement": "Ki", "setting": "[2]", "result": 6450, "unit": "nM"}, {"measurement": "Ki", "setting": "[3]; read-out: Ki (nM) ^3H-Spip; radioligand ^3H-Spip; cited from earlier work", "result": "> 100000", "unit": "nM"}]}
{"smiles": "COc1cc2c(cc1O)C1c3ccccc3CCC1N(C)CC2", "note": "(stereo not drawn) [Q=CH2, n=1, trans, X=CH3O, Y=OH]", "values": [{"measurement": "Ki", "setting": "[2]", "result": 23, "unit": "nM"}, {"measurement": "CAR (MED), po", "setting": "[1]", "result": 30, "unit": "mg/kg"}, {"measurement": "CAR (MED), sc", "setting": "[1]; in mg/kg (unit assumed)", "result": "0.3-1"}]}
{"smiles": "CN1CCc2cc(Cl)c(O)cc2[C@@H]2c3ccccc3CC[C@H]21", "note": "[Q=CH2, n=1, 7b(S):7a(R)(+), X=Cl, Y=OH]", "values": [{"measurement": "CAR (MED), po", "setting": "[1]", "result": ">30 (po)"}]}
{"smiles": "CN1CCc2cc(Cl)c(N)cc2C2c3ccccc3CCC21", "note": "(stereo not drawn) [Q=CH2, n=1, trans, X=Cl, Y=NH2]", "values": [{"measurement": "Ki", "setting": "[2]", "result": 70, "unit": "nM"}, {"measurement": "CAR (MED), po", "setting": "[1]", "result": "3 (po)"}]}
{"smiles": "CN1CCc2cc(Cl)c(O)cc2C2c3ccccc3CC21", "note": "(stereo not drawn) [Q=CH2, n=0, trans, X=Cl, Y=OH]", "values": [{"measurement": "Ki", "setting": "[2]", "result": 10, "unit": "nM"}]}
{"smiles": "CN1CCc2cc(Cl)c(O)cc2[C@H]2c3ccccc3CC[C@@H]21", "note": "[Q=CH2, n=1, 7b(R):7a(S)(−), X=Cl, Y=OH]", "values": [{"measurement": "CAR (MED), po", "setting": "[1]", "result": "30 (po)"}]}
{"smiles": "CN1CCc2cc(Cl)c(O)cc2[C@H]2c3ccccc3CC[C@@H]21", "note": "[ecopipam, (−)-trans-6,7,7a,8,9,13b-hexahydro-3-chloro-2-hydroxy-N-methyl-5H-benzo [d]-naphtho-[2,1-b]azepine]", "values": [{"measurement": "Concentration multiple at which it did not bind to other sites", "setting": "[4]", "result": "> 700", "unit": "fold"}, {"measurement": "Functional action on cAMP second messenger", "setting": "[5]", "result": "antagonist"}, {"measurement": "Affinity for hD1/hD5 receptors", "setting": "[6]", "result": "high affinity"}, {"measurement": "Patients with at least one grade change in CGI-S score", "setting": "[7]; 9 of the 15 patients, p≤0.01 Student's t test", "result": 60, "unit": "%"}, {"measurement": "Subjects reporting adverse events", "setting": "[7]; 18 subjects", "result": "All subjects reported at least one adverse event"}, {"measurement": "Change in YGTSS scores, intent to treat analysis", "setting": "[7]; entire population n=18", "result": "statistically significant changes were evident"}, {"measurement": "Change in YGTSS scores (motor, phonic, total severity), baseline to last visit", "setting": "[7]; fifteen patients who completed the trial, 50 mg/day Weeks 1-2, 100 mg/day Weeks 3-8", "result": "highly statistically significant (Paired t-Test p<0.001) reduction"}, {"measurement": "Changes in lab tests", "setting": "[7]; human, in vivo", "result": "none were of clinical significance"}, {"measurement": "Changes in vital signs", "setting": "[7]; human, in vivo", "result": "no clinically significant changes in vital signs"}, {"measurement": "Serious adverse events", "setting": "[7]; requiring medical intervention", "result": "no serious adverse events"}, {"measurement": "Patients reporting AEs rated as severe", "setting": "[7]; sedation, insomnia, decreased appetite, hypersensitivity, cold sweat, feeling jittery", "result": "Four"}, {"measurement": "Affinity for D1/D5 receptors", "setting": "[8]", "result": "high affinity"}, {"measurement": "Action on dopamine-agonist-induced behaviors", "setting": "[9]", "result": "selective D1 antagonist"}, {"measurement": "PET binding in the human brain", "setting": "[10]", "result": "specific binding in the human brain"}]}
{"smiles": "Cc1cc2c(cc1O)C1c3ccccc3CCC1N(C)CC2", "note": "(stereo not drawn) [Q=CH2, n=1, trans, X=CH3, Y=OH]", "values": [{"measurement": "Ki", "setting": "[2]", "result": 119, "unit": "nM"}]}
{"smiles": "CN1CCc2ccc(O)cc2C2c3ccccc3OCC21", "note": "(stereo not drawn) [Q=O, n=1, trans, X=H, Y=OH]", "values": [{"measurement": "Ki", "setting": "[2]", "result": 121, "unit": "nM"}]}
{"smiles": "COc1cc2c(cc1O)CCN(C)C1CCCc3ccccc3C21", "note": "(stereo not drawn) [Q=CH2, n=2, trans, X=HO, Y=CH3O]", "values": [{"measurement": "Ki", "setting": "[2]", "result": 7730, "unit": "nM"}, {"measurement": "Ki", "setting": "[3]; [11]", "result": "> 100000", "unit": "nM"}, {"measurement": "CAR (MED), sc", "setting": "[1]", "result": "10 (sc)"}]}
{"smiles": "CN1CCc2ccc(O)cc2C2c3ccccc3CCC21", "note": "(stereo not drawn) [Q=CH2, n=1, trans, X=H, Y=OH]", "values": [{"measurement": "Ki", "setting": "[2]", "result": 80, "unit": "nM"}]}
{"smiles": "COc1cc2c(cc1O)C1c3ccccc3CCCC1N(C)CC2", "note": "(stereo not drawn) [Q=CH2, n=2, trans, X=CH3O, Y=OH]", "values": [{"measurement": "Ki", "setting": "[2]", "result": 292, "unit": "nM"}, {"measurement": "Ki", "setting": "[3]; [11]", "result": "> 100000", "unit": "nM"}, {"measurement": "CAR (MED), sc", "setting": "[1]", "result": "10 (sc)"}]}
